{
  "source": "patent US20230051268A1",
  "about": "“USE OF L[…] TREATING INSOMNIA” (Eisai R&D Management Co., Ltd., priority 2019, published 2023)",
  "key": {"[1]": {"assay": "Plasma protein binding (unbound fraction) by equilibrium dialysis and LC-MS/MS, samples 1 and 24 hours postdose", "format": "in vitro ADME", "details": "human, oral, 10 mg, lemborexant 10 mg single oral dose, geometric mean (% CV)", "procedure": "(§1) The blood samples for PK assessments were collected at prespecified intervals up to 312 hours postdose administration. In addition, the blood samples for plasma protein binding assessments of lemborexant were collected from each subject at 2 time points; approximately 1 hour and 24 hours postdose. The subjects were discharged on Day 14 of the study. The end of the study was the date of the last study visit for the last subject.\n(§2) Blood samples (4 mL each) for PK assessments of lemborexant and its metabolites (M4, M9, and M10) were collected at predose (0 hour), 0.5, 1, 1.5, 2, 3, 4, 6, 8, 12, 24, 48, 72, 96, 120, 144, 168, 216, 264, and 312 hours postdose. In addition, blood samples (12 mL per time point) for protein binding of lemborexant and its metabolites (M4, M9, and M10) were collected at 1 and 24 hours postdose matching the PK sample collection at those time points.\n(§3) Total mean plasma concentrations of lemborexant and lemborexant metabolites (M4, M9, and M10) were measured by validated liquid chromatography with tandem mass spectrometry (LC-MS/MS). Unbound lemborexant concentrations of lemborexant, M4, M9, and M10 were also measured using a similar validated LC-MS/MS method following equilibrium dialysis."}, "[2]": {"assay": "Single-dose pharmacokinetic study of lemborexant and metabolites M4, M9, M10 in subjects with mild or moderate hepatic impairment and healthy controls (plasma, LC-MS/MS)", "format": "in vivo, human", "details": "for Ratio (%) (Test/Ref) of geometric mean AUC(0-inf) / Ratio (%) (Test/Ref) of geometric mean AUC(0-t) / Ratio (%) (Test/Ref) of geometric mean Cmax: lemborexant 10 mg single dose; for half-life / AUC(0-inf) / Vd/F / Cmax / AUC(0-t) / AUCu / CL/F / CLu/F: geometric mean (% CV); for Vd/F: read-out: Vz/F", "procedure": "A multicenter, single-dose, open-label, parallel-group study in subjects with mild or moderate hepatic impairment and matched (with regard to age [±10 years], sex, and body mass index [BMI, ±20%]) healthy subjects as controls was performed.\nThe primary objective of the study was to assess the effect of mild and moderate hepatic impairment on the PK of lemborexant after a single-dose administration.\nSecondary objectives of the study were: to evaluate the effects of hepatic impairment on the PK of lemborexant metabolites M4, M9, and M10; to evaluate the relationship between the PK parameters of lemborexant and its metabolites and the Child-Pugh classification score, serum albumin, total bilirubin, and PT; and to assess safety and tolerability of lemborexant following a single-dose administration in subjects with mild or moderate hepatic impairment and healthy control subjects.\n(§4) On Day 1, the subjects were administered a single oral 10 mg dose of lemborexant with approximately 240 mL of water in the morning after an overnight fast. No food was allowed for at least 4 hours postdose. Water was allowed as desired except for 1 hour before and after drug administration.\nas §1, §2, §3"}, "[3]": {"assay": "Safety and tolerability assessment (TEAEs, ECGs, vital signs, laboratory tests) after single 10 mg dose", "format": "in vivo, human", "procedure": "as §4\nSafety was assessed by monitoring and documenting treat-emergent adverse events (TEAEs), ECGs, vital signs, weight, physical examinations, and clinical laboratory tests (urinalysis, hematology, and blood chemistry)."}, "[4]": {"details": "human, plasma, po, 10 mg, lemborexant 10 mg single oral dose, normal hepatic function (n = 8)"}, "[5]": {"details": "lemborexant 10 mg single oral dose, mild hepatic impairment (n = 7)"}, "[6]": {"details": "lemborexant 10 mg single oral dose, moderate hepatic impairment (n = 6)"}, "[7]": {"details": "lemborexant 10 mg single oral dose, normal hepatic function (n = 8)"}, "[8]": {"details": "moderate hepatic impairment, 10 mg"}},
  "note": "Values joined by “and” are separate entries in the source; they are usually repeats but may differ in a detail not shown here. Equal entries are not always repeated. Where two headings read alike, the source gives them in different places. Marks after values point to notes of the source that are not given here.",
  "data": [
    {"smiles": "Cc1ncc(OC[C@@]2(c3cccc(F)c3)C[C@H]2C(=O)Nc2ccc(F)cn2)c(C)n1", "note": "[lemborexant, (1R,2S)-2-(((2,4-dimethylpyrimidin-5-yl)oxy)methyl)-2-(3-fluorophenyl)-N-(5-fluoropyridin-2-yl)cyclopropanecarboxamide]", "values": [
      {"measurement": "fraction unbound", "setting": "[1]; mild hepatic impairment (n = 8)", "value": 0.063},
      {"measurement": "fraction unbound", "setting": "[1]; moderate hepatic impairment (n = 8)", "value": 0.065},
      {"measurement": "fraction unbound", "setting": "[1]; normal hepatic function (n = 8)", "value": 0.0597},
      {"measurement": "Ratio (%) (Test/Ref) of geometric mean AUC(0-inf)", "setting": "[2]; Mild: Normal", "value": 125.03, "unit": "%"},
      {"measurement": "Ratio (%) (Test/Ref) of geometric mean AUC(0-t)", "setting": "[2]; Mild: Normal", "value": 131.91, "unit": "%"},
      {"measurement": "Ratio (%) (Test/Ref) of geometric mean Cmax", "setting": "[2]; Mild: Normal", "value": 157.86, "unit": "%"},
      {"measurement": "Ratio (%) (Test/Ref) of geometric mean AUC(0-inf)", "setting": "[2]; Moderate: Normal", "value": 153.56, "unit": "%"},
      {"measurement": "Ratio (%) (Test/Ref) of geometric mean AUC(0-t)", "setting": "[2]; Moderate: Normal", "value": 149.52, "unit": "%"},
      {"measurement": "Ratio (%) (Test/Ref) of geometric mean Cmax", "setting": "[2]; Moderate: Normal", "value": 122.20, "unit": "%"},
      {"measurement": "Tmax", "setting": "[2]; human, plasma, oral, 10 mg, normal, mild and moderate cohorts, 10 mg tablet, read-out: median tmax across cohorts", "value": "1 to 1.25", "unit": "h"},
      {"measurement": "half-life", "setting": "[2]; human, plasma, po, 10 mg, lemborexant 10 mg single oral dose, mild hepatic impairment (lemborexant n = 7)", "value": 73.7, "unit": "h"},
      {"measurement": "AUC(0-inf)", "setting": "[2]; human, plasma, po, 10 mg, lemborexant 10 mg single oral dose, mild hepatic impairment (lemborexant n = 7), read-out: AUC(0-inf)", "value": 0.567, "unit": "µg·h/mL"},
      {"measurement": "Vd/F", "setting": "[2]; human, plasma, po, 10 mg, lemborexant 10 mg single oral dose, mild hepatic impairment (n = 7)", "value": 1880, "unit": "L"},
      {"measurement": "Cmax", "setting": "[2]; human, plasma, po, 10 mg, lemborexant 10 mg single oral dose, mild hepatic impairment (n = 8)", "value": 0.0629, "unit": "µg/mL"},
      {"measurement": "AUC(0-t)", "setting": "[2]; human, plasma, po, 10 mg, lemborexant 10 mg single oral dose, mild hepatic impairment (n = 8), read-out: AUC(0-t)", "value": 0.574, "unit": "µg·h/mL"},
      {"measurement": "Tmax", "setting": "[2]; human, plasma, po, 10 mg, lemborexant 10 mg single oral dose, mild hepatic impairment (n = 8), median (range), read-out: tmax", "value": 1, "unit": "h"},
      {"measurement": "half-life", "setting": "[2]; human, plasma, po, 10 mg, lemborexant 10 mg single oral dose, moderate hepatic impairment (lemborexant n = 6)", "value": 105, "unit": "h"},
      {"measurement": "AUC(0-inf)", "setting": "[2]; human, plasma, po, 10 mg, lemborexant 10 mg single oral dose, moderate hepatic impairment (lemborexant n = 6), read-out: AUC(0-inf)", "value": 0.696, "unit": "µg·h/mL"},
      {"measurement": "Vd/F", "setting": "[2]; human, plasma, po, 10 mg, lemborexant 10 mg single oral dose, moderate hepatic impairment (n = 6)", "value": 2170, "unit": "L"},
      {"measurement": "Cmax", "setting": "[2]; human, plasma, po, 10 mg, lemborexant 10 mg single oral dose, moderate hepatic impairment (n = 8)", "value": 0.0487, "unit": "µg/mL"},
      {"measurement": "AUC(0-t)", "setting": "[2]; human, plasma, po, 10 mg, lemborexant 10 mg single oral dose, moderate hepatic impairment (n = 8), read-out: AUC(0-t)", "value": 0.651, "unit": "µg·h/mL"},
      {"measurement": "Tmax", "setting": "[2]; human, plasma, po, 10 mg, lemborexant 10 mg single oral dose, moderate hepatic impairment (n = 8), median (range), read-out: tmax", "value": 1, "unit": "h"},
      {"measurement": "Cmax", "setting": "[2]; [4]", "value": 0.0398, "unit": "µg/mL"},
      {"measurement": "half-life", "setting": "[2]; [4]", "value": 67, "unit": "h"},
      {"measurement": "AUC(0-inf)", "setting": "[2]; human, plasma, po, 10 mg, lemborexant 10 mg single oral dose, normal hepatic function (n = 8), read-out: AUC(0-inf)", "value": 0.453, "unit": "µg·h/mL"},
      {"measurement": "AUC(0-t)", "setting": "[2]; human, plasma, po, 10 mg, lemborexant 10 mg single oral dose, normal hepatic function (n = 8), read-out: AUC(0-t)", "value": 0.435, "unit": "µg·h/mL"},
      {"measurement": "Vd/F", "setting": "[2]; [4]", "value": 2130, "unit": "L"},
      {"measurement": "Tmax", "setting": "[2]; human, plasma, po, 10 mg, lemborexant 10 mg single oral dose, normal hepatic function (n = 8), median (range), read-out: tmax", "value": 1.25, "unit": "h"},
      {"measurement": "AUC(0-inf)", "setting": "[2]; lemborexant 10 mg single oral dose, mild hepatic impairment (lemborexant n = 7)", "value": 0.567, "unit": "µg·h/mL"},
      {"measurement": "AUCu", "setting": "[2]; [5]", "value": "34.9 (52.6)^b h * ng/mL"},
      {"measurement": "CL/F", "setting": "[2]; [5]", "value": "17.6 L/h and 17.6 (52.0)^b L/h"},
      {"measurement": "CLu/F", "setting": "[2]; [5]", "value": "287 (52.6)^b L/h"},
      {"measurement": "AUC(0-t)", "setting": "[2]; lemborexant 10 mg single oral dose, mild hepatic impairment (n = 8)", "value": 0.574, "unit": "µg·h/mL"},
      {"measurement": "AUC(0-inf)", "setting": "[2]; lemborexant 10 mg single oral dose, moderate hepatic impairment (lemborexant n = 6)", "value": 0.696, "unit": "µg·h/mL"},
      {"measurement": "AUCu", "setting": "[2]; [6]", "value": "45.1 (42.6)^c h * ng/mL"},
      {"measurement": "CL/F", "setting": "[2]; [6]", "value": "14.4 L/h and 14.4 (34.6)^c L/h"},
      {"measurement": "CLu/F", "setting": "[2]; [6]", "value": "222 (42.6)^c L/h"},
      {"measurement": "AUC(0-t)", "setting": "[2]; lemborexant 10 mg single oral dose, moderate hepatic impairment (n = 8)", "value": 0.651, "unit": "µg·h/mL"},
      {"measurement": "AUCu", "setting": "[2]; [7]", "value": "27.1 (36.8) h * ng/mL"},
      {"measurement": "CL/F", "setting": "[2]; [7]", "value": "22.1 L/h and 22.1 (33.9) L/h"},
      {"measurement": "decrease of total body clearance compared with healthy subjects", "setting": "[2]; mild hepatic impairment, 10 mg", "value": 20, "unit": "%"},
      {"measurement": "increase of AUC(0-inf) compared to healthy subjects", "setting": "[2]; mild hepatic impairment, 10 mg", "value": 25, "unit": "%"},
      {"measurement": "increase of Cmax compared to healthy subjects", "setting": "[2]; mild hepatic impairment, 10 mg", "value": 58, "unit": "%"},
      {"measurement": "exposure (geometric mean Cmax, AUC) compared with healthy control subjects", "setting": "[2]; mild or moderate hepatic impairment, single 10-mg tablet", "value": "higher"},
      {"measurement": "decrease of total body clearance compared with healthy subjects", "setting": "[2]; [8]", "value": 35, "unit": "%"},
      {"measurement": "increase of AUC(0-inf) compared to healthy subjects", "setting": "[2]; [8]", "value": 54, "unit": "%"},
      {"measurement": "increase of Cmax compared to healthy subjects", "setting": "[2]; [8]", "value": 22, "unit": "%"},
      {"measurement": "effects of mild and moderate hepatic impairment on PK (scatter plots, linear regression)", "setting": "[2]; vs Child-Pugh score, serum albumin, total bilirubin, MELD score, PT", "value": "small and similar"},
      {"measurement": "subjects who experienced a TEAE", "setting": "[3]; Class A (mild hepatic impairment)", "value": "7 (87.5%) subjects (%)"},
      {"measurement": "subjects who experienced a TEAE", "setting": "[3]; Class B (moderate hepatic impairment)", "value": "6 (75.0%) subjects (%)"},
      {"measurement": "subjects who experienced a TEAE", "setting": "[3]; Healthy Controls", "value": "7 (87.5%) subjects (%)"},
      {"measurement": "subjects who experienced a TEAE", "setting": "[3]; all 24 subjects", "value": "20 (83.3%) subjects (%)"},
      {"measurement": "TEAEs potentially related to cataplexy", "setting": "[3]; all cohorts", "value": "no TEAEs potentially related to cataplexy"},
      {"measurement": "TEAEs that led to subject discontinuation", "setting": "[3]; all cohorts", "value": "none"},
      {"measurement": "severity of TEAEs", "setting": "[3]; all cohorts", "value": "mild in severity"},
      {"measurement": "SAEs reported", "setting": "[3]; all cohorts, single 10 mg dose", "value": "No SAEs were reported"}
    ]}
  ]
}
